From patent publication US20240287080A1 (IDEAYA Biosciences Inc., priority 2021, published 2024)

Target: T1, Pol theta (1-899) (Homo sapiens, UniProt O75417)
T1 construct: Pol theta (1-899) (5 nM) in assay buffer
Test: Pol theta ATPase activity, NADH oxidation-coupled enzymatic assay (ATPase NADH coupling: Standard Screening: hPolQ)
Assay type: biochemical
Conditions: Pol theta (1-899) 5 nM, NADH oxidation-coupled ATPase assay; compounds of Table 3
In short: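 Rates of ATP hydrolysis taken from 60-min A340 traces of NADH oxidation via PK/LDH coupling, then fit four-parameter for IC50, Hill slope and max inhibition. Enzyme (5 nM, 1-899) and compounds preincubated 15 min before ATP 100 μM and 50-thymine ssDNA 300 nM (stock, equal volume added).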

T1 sequence (O75417 1-899): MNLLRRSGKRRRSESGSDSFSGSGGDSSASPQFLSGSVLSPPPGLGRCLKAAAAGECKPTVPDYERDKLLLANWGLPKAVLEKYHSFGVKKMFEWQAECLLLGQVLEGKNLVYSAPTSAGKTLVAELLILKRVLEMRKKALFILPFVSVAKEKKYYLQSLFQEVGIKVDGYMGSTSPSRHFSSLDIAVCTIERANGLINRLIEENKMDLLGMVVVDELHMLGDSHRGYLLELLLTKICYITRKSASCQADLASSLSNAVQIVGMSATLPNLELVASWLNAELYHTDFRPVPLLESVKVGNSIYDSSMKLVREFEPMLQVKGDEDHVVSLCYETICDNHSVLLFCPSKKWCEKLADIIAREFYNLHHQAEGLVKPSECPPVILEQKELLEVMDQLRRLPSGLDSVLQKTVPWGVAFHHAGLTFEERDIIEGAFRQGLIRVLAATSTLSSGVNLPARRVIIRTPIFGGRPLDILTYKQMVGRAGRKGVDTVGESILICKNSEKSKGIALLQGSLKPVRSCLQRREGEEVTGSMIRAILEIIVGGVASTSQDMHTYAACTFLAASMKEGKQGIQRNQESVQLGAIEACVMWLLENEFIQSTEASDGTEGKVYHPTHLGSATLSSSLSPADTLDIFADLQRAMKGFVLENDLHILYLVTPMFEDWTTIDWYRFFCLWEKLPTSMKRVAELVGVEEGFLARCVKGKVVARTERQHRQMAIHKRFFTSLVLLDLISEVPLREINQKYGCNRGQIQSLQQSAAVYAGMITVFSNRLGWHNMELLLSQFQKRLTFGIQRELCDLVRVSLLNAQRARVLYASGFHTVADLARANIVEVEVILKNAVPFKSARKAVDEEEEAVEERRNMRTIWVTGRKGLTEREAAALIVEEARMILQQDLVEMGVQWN

Row | IC50 | Structure (SMILES)
1 | 1000 to 10000 nM | COc1nnc(NC(=O)c2cnc(C)cc2-c2cccc(CN(C)C)c2)s1 [Example 410, 4-(3-((dimethylamino)methyl)phenyl)-N-(5-methoxy-1,3,4-thiadiazol-2-yl)-6 methylnicotinamide]
2 | 1000 to 10000 nM | COc1nnc(NC(=O)c2cnc(C)cc2-c2cccc3nn(C)cc23)s1 [Example 489, N-(5-methoxy-1,3,4-thiadiazol-2-yl)-6-methyl-4-(2-methyl-2H-indazol-4-yl)pyridine-3-carboxamide]
3 | ≤ 200 nM | COc1nnc(NC(=O)c2ccncc2-c2cc(Cl)ncc2OC)s1 [Example 259, 2′-chloro-5′-methoxy-N-(5-methoxy-1,3,4-thiadiazol-2-yl)-[3,4′-bipyridine]-4-carboxamide]
4 | 1000 to 10000 nM | COc1nnc(NC(=O)c2cnc(C)cc2-c2ccc(F)cc2)s1 [Example 368, 4-(4-fluorophenyl)-N-(5-methoxy-1,3,4-thiadiazol-2-yl)-6-methylpyridine-3-carboxamide]
5 | 500 to 1000 nM | COc1nnc(NC(=O)c2cnc(C)cc2-c2ccnc(C(F)(F)F)c2)s1 [Example 467, N-(5-methoxy-1,3,4-thiadiazol-2-yl)-6-methyl-2′-(trifluoromethyl)-[4,4′-bipyridine]-3-carboxamide]
6 | 1000 to 10000 nM | COc1nnc(NC(=O)c2cnc(C)cc2-c2ccnc(C)c2)s1 [Example 404, N-(5-methoxy-1,3,4-thiadiazol-2-yl)-2′,6-dimethyl-[4,4′-bipyridine]-3-carboxamide]
7 | ≤ 200 nM | COc1nnc(NC(=O)c2cnc(C)cc2-c2cccc(C)c2F)s1 [Example 414, 4-(2-fluoro-3-methylphenyl)-N-(5-methoxy-1,3,4-thiadiazol-2-yl)-6-methylpyridine-3-carboxamide]
8 | 1000 to 10000 nM | COc1nnc(NC(=O)c2cnc(C)cc2-c2ccc3[nH]ccc3c2)s1 [Example 352, 4-(1H-indol-5-yl)-N-(5-methoxy-1,3,4-thiadiazol-2-yl)-6-methylpyridine-3-carboxamide]
9 | ≤ 200 nM | COc1cnc(C)c(F)c1-c1cc(C)ncc1C(=O)Nc1nnc(O[C@@H]2CCC[C@H](O)C2)s1 (single isomer, unassigned) [Example 255]
10 | ≤ 200 nM | COc1cnc(Cl)c(F)c1-c1cc(C)ncc1C(=O)Nc1nnc(O[C@H]2CC[C@H](CO)CC2)s1 [Example 316, 2′-chloro-3′-fluoro-N-(5-(((1r,4r)-4-(hydroxymethyl)cyclohexyl)oxy)-1,3,4-thiadiazol-2-yl)-5′-methoxy-6-methyl-[4,4′-bipyridine]-3-carboxamide]
11 | ≤ 200 nM | COc1nnc(NC(=O)c2cnc(C)cc2-c2cc(Cl)c([S+](C)[O-])cc2OC)s1 (single isomer, unassigned) [Example 277]

Same assay, conditions: Table 4; Pol theta (1-899) 5 nM, ATP, dT50 ssDNA

Row | IC50 | Structure (SMILES)
12 | ≤ 200 nM | COc1cnc(Cl)cc1-c1cc(C)ncc1C(=O)Nc1nnc(OCC(C)(C)C#N)s1 [Example 10, 2′-chloro-N-(5-(2-cyano-2-methylpropoxy)-1,3,4-thiadiazol-2-yl)-5′-methoxy-6-methyl-(4,4′-bipyridine)-3-carboxamide]
13 | ≤ 200 nM | COc1cnc(Cl)cc1-c1cc(C)ncc1C(=O)Nc1nnc(OCC(C)(C)O)s1 [Example 14, 2′-chloro-N-(5-(2-hydroxy-2-methylpropoxy)-1,3,4-thiadiazol-2-yl)-5′-methoxy-6-methyl-(4,4′-bipyridine)-3-carboxamide]
14 | 200 to 500 nM | CCOc1cnc(Cl)cc1-c1cc(C)ncc1C(=O)Nc1nnc(OC)s1 [Example 42, 2′-chloro-5′-ethoxy-N-(5-methoxy-1,3,4-thiadiazol-2-yl)-6-methyl-(4,4′-bipyridine)-3-carboxamide]
15 | ≤ 200 nM | CCc1cc(-c2cc(C)ncc2C(=O)Nc2nnc(OC)s2)c(OC)cn1 [Example 44, 2′-ethyl-5′-methoxy-N-(5-methoxy-1,3,4-thiadiazol-2-yl)-6-methyl-(4,4′-bipyridine)-3-carboxamide]
16 | ≤ 200 nM | COc1cnc(Cl)cc1-c1cc(C)ncc1C(=O)Nc1nnc(OC2CCS(=O)(=O)CC2)s1 [Example 25, 2′-chloro-N-(5-((1,1-dioxidotetrahydro-2H-thiopyran-4-yl)oxy)-1,3,4-thiadiazol-2-yl)-5′-methoxy-6-methyl-(4,4′-bipyridine)-3-carboxamide]
17 | ≤ 200 nM | COc1nnc(NC(=O)c2cnc(C)cc2-c2cc(Br)ncc2OC)s1 [Example 63, 2′-bromo-5′-methoxy-N-(5-methoxy-1,3,4-thiadiazol-2-yl)-6-methyl-(4,4′-bipyridine)-3-carboxamide]
18 | ≤ 200 nM | COc1cnc(Cl)cc1-c1cc(C)ncc1C(=O)Nc1nnc(O[C@H]2CC[C@H](O)C2)s1 [Example 45, 2′-chloro-N-(5-(((1s,3s)-3-hydroxycyclopentyl)oxy)-1,3,4-thiadiazol-2-yl)-5′-methoxy-6-methyl-(4,4′-bipyridine)-3-carboxamide]

Same assay, conditions: Table 5; Pol theta (1-899) 5 nM, ATP, dT50 ssDNA

Row | IC50 | Structure (SMILES)
19 | ≤ 200 nM | COc1cnc(Br)cc1-c1cc(C)ncc1C(=O)Nc1nnc(O[C@H]2CC[C@H](O)CC2)s1 [Example 194, 2′-bromo-N-(5-(((1r,4r)-4-hydroxycyclohexyl)oxy)-1,3,4-thiadiazol-2-yl)-5′-methoxy-6-methyl-(4,4′-bipyridine)-3-carboxamide]
20 | ≤ 200 nM | COc1cnc(Cl)cc1-c1cc(C)ncc1C(=O)Nc1nnc(O[C@@H]2CCC23COC3)s1 (single isomer, unassigned) [Example 137]
21 | ≤ 200 nM | COc1cnc(Cl)cc1-c1cc(C)ncc1C(=O)Nc1nnc(O[C@@H]2CC[C@H]2O)s1 (single isomer, unassigned) [Example 114]
22 | 1000 to 10000 nM | COc1nnc(NC(=O)c2cnc(C)cc2-c2cnn3c2OCC3)s1 [Example 126, 4-(2,3-dihydropyrazolo(5,1-b)oxazol-7-yl)-N-(5-methoxy-1,3,4-thiadiazol-2-yl)-6-methylnicotinamide]
23 | ≤ 200 nM | COc1cnc(Br)cc1-c1cc(C)ncc1C(=O)Nc1nnc(O[C@@H]2CCOC2)s1 [Example 84]
24 | ≤ 200 nM | COc1cnc(Br)cc1-c1cc(C)ncc1C(=O)Nc1nnc(O[C@H]2CCOC2)s1 [Example 122, (S)-2′-bromo-5′-methoxy-6-methyl-N-(5-((tetrahydrofuran-3-yl)oxy)-1,3,4-thiadiazol-2-yl)-(4,4′-bipyridine)-3-carboxamide]
25 | ≤ 200 nM | COc1cnc(Cl)c(F)c1-c1cc(C)ncc1C(=O)Nc1nnc(O[C@@H]2CCO[C@@H]2C)s1 (single isomer, unassigned) [Example 166]
26 | ≤ 200 nM | Cc1cc(-c2cc(Br)ncc2OC(F)F)c(C(=O)Nc2nnc(O[C@H]3CC[C@H](O)CC3)s2)cn1 [Example 205, 2′-bromo-5′-(difluoromethoxy)-N-(5-(((1r,4r)-4-hydroxycyclohexyl)oxy)-1,3,4-thiadiazol-2-yl)-6-methyl-(4,4′-bipyridine)-3-carboxamide]
27 | ≤ 200 nM | COc1cnc(Cl)cc1-c1cc(C)ncc1C(=O)Nc1nnc(O[C@@H]2CCC[C@@H](OC)C2)s1 (single isomer, unassigned) [Example 148]

Same assay, conditions: Table 5; values given as bound; Pol theta (1-899) 5 nM, ATP, dT50 ssDNA

Row | IC50 | Structure (SMILES)
28 | > 10000 nM | COc1nnc(NC(=O)c2cn3c(C)cnc3cc2-c2c(F)cccc2OC)s1 [Example 120, 7-(2-fluoro-6-methoxyphenyl)-N-(5-methoxy-1,3,4-thiadiazol-2-yl)-3-methylimidazo(1,2-a)pyridine-6-carboxamide]
29 | > 10000 nM | COc1nnc(NC(=O)c2ccn(-c3cc(Cl)ncc3OC)n2)s1 [Example 235, 1-(2-chloro-5-methoxypyridin-4-yl)-N-(5-methoxy-1,3,4-thiadiazol-2-yl)-1H-pyrazole-3-carboxamide]
